Measured values reported in US20060111445A1, “Novel carboxylic acids and derivatives for the treatment of and preventing diabetes and dyslipidaemia” (priority 2003, published 2006).

Legend:
[1] = tested on: vector expressing Gal4 alone; assay: Luciferase reporter control without the PPAR ligand binding domain in CV-1 cells; format: cell-based
Procedure: (§1) CV-1 cells (monkey kidney cells) are co-transfected with an expression vector for the chimeric proteins PPARα-Gal4 or PPARγ-Gal4 and with a “reporter” plasmid that allows the expression of the luciferase gene placed under the control of a promoter containing Gal4 response elements.
The cells are plated into 96-well microplates and co-transfected using a commercial reagent with the reporter plasmid (pG5-tk-pGL3) and the expression vector for the chimeric protein (PPARα-Gal4 or PPARγ-Gal4). After incubating for 4 hours, whole culture medium (comprising 10% foetal calf serum) is added to the wells. After 24 hours, the medium is removed and replaced with whole medium comprising the test products (50 μM final). […] The cells are then lysed and the luciferase activity is measured using a luminometer. A PPAR activation factor can then be calculated by means of the activation of the expression of the reporter gene induced by the product (relative to the control cells that have not received any product).
By way of example, the compound of Example 1, at a concentration of 50 μM, activates the chimeric protein PPARα-Gal4 by factor of 18, and the chimeric protein PPARγ-Gal4 by a factor of 39. In the absence of the binding domain for the PPAR α or γ ligand (vector expressing Gal4 alone), the luciferase activity measured in the presence of this product is zero.

[2] = target: T1, chimeric protein PPARα-Gal4 (Homo sapiens, UniProt Q07869); assay: PPAR activation, Gal4 chimera luciferase reporter in co-transfected CV-1 cells; format: cell-based; details: 50 μM, 18 hours contact, relative to control cells without product
T1 construct: Gal4 (fusion partner); expressed in transfected cells; host or cells: CV-1 cells (monkey kidney cells)
T1 sequence (Q07869 239-466 limits assumed): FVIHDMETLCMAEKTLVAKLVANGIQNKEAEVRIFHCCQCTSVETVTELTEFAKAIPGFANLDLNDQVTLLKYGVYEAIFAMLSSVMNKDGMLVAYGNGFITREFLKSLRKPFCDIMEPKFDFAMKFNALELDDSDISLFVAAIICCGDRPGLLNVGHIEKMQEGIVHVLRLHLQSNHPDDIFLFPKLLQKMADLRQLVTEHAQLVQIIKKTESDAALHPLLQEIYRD
Procedure: (§2) The measurement of the PPAR activation was performed according to a technique described by Lehmann et al. (1995, J. Biol. Chem. 270: 12953-12956).
as §1
(§3) The cells are plated into 96-well microplates and co-transfected using a commercial reagent with the reporter plasmid (pG5-tk-pGL3) and the expression vector for the chimeric protein (PPARα-Gal4 or PPARγ-Gal4). After incubating for 4 hours, whole culture medium (comprising 10% foetal calf serum) is added to the wells. After 24 hours, the medium is removed and replaced with whole medium comprising the test products (50 μM final). The products are left in contact with the cells for 18 hours. The cells are then lysed and the luciferase activity is measured using a luminometer. A PPAR activation factor can then be calculated by means of the activation of the expression of the reporter gene induced by the product (relative to the control cells that have not received any product).

[3] = target: T2, chimeric protein PPARγ-Gal4 (Homo sapiens, UniProt P37231); assay: as above; format: cell-based; details: 50 μM, 18 hours contact, relative to control cells without product
T2 construct: Gal4 (fusion partner); expressed in transfected cells; host or cells: CV-1 cells (monkey kidney cells)
T2 sequence (P37231 238-503 limits assumed): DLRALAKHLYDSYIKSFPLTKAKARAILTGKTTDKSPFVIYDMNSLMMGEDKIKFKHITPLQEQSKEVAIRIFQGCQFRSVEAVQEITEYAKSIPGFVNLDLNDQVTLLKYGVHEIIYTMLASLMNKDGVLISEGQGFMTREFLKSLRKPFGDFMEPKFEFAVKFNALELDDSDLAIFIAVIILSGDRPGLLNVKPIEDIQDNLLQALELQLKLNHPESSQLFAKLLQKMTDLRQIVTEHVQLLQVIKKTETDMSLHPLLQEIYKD
Procedure: as §2, §1, §3

| PPAR activation factor (activation of the chimeric protein PPARα-Gal4) [2] | PPAR activation factor (activation of the chimeric protein PPARγ-Gal4) [3] | melting point [°C] | SMILES | luciferase activity in the absence of the binding domain for the PPAR α or γ ligand [1] |
| --- | --- | --- | --- | --- |
| 18 | 39 | – | CCCCCCc1cc2c(cc1OCCCC(=O)O)C(=O)CC2 [Example 1, 4-(6-hexyl-3-oxoindan-5-yloxy)butyric acid] | zero |
| – | – | 148 | CCCCCCc1cc2c(cc1OCCCC(=O)O)C(=NO)CC2 [Example 24, 4-(6-hexyl-3-(hydroxyimino)-5-indanyloxy]butyric acid] | – |
| – | – | 100 | CCCCCCc1cc2c(cc1SCCCC(=O)O)C(=O)CC2 [Example 42, 4-(6-hexyl-3-oxoindan-5-ylsulfanyl)butyric acid] | – |

Second part, the compound before the results:

| SMILES | PPAR activation factor (activation of the chimeric protein PPARα-Gal4) [2] | PPAR activation factor (activation of the chimeric protein PPARγ-Gal4) [3] | melting point [°C] | luciferase activity in the absence of the binding domain for the PPAR α or γ ligand [1] |
| --- | --- | --- | --- | --- |
| CCCCCCc1cc2c(cc1NCC(=O)O)C(=O)CC2 [Example 36, (6-Hexyl-3-oxoindan-5-ylamino)acetic acid] | – | – | 110 | – |
| CCCCCCc1cc2c(cc1NCC(=O)O)C(=O)CC2 [Example 38, (6-Hexyl-3-oxoindan-5-ylamino)acetic acid] | – | – | 144 | – |
